Measurements reported in ChEMBL document CHEMBL1144434, “Structure-activity relationships within a series of caspase inhibitors. Part 2: Heterocyclic warheads” (Bioorg Med Chem Lett, 2005).

Tests used:
[1] = target: Caspase-8 (Homo sapiens) (UniProt Q14790); assay: Binding affinity against Caspase-8
[2] = target: T1, Caspase-6 (Homo sapiens) (UniProt P55212); assay: Binding affinity against Caspase-6
T1 sequence (whole entry): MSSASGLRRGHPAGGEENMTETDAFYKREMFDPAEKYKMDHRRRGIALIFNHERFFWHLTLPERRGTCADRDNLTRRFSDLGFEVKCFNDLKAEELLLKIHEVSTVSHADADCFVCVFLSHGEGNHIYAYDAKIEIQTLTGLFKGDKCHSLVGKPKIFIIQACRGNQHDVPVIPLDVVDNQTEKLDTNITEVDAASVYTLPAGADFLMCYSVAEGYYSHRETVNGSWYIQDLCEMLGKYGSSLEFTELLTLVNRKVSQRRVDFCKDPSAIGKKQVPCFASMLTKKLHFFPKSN

[3] = target: T2, Caspase-3 (Homo sapiens) (UniProt P42574); assay: Binding affinity against Caspase-3
T2 sequence (whole entry): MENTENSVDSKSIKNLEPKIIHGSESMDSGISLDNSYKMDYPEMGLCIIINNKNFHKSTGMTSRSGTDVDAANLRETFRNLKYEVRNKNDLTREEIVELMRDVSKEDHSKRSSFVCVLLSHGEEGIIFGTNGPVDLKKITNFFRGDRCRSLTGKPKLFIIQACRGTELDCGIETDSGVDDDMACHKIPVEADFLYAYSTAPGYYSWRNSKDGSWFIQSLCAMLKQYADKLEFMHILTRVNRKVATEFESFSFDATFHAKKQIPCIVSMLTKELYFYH

[4] = tested on: Jurkat; assay: Inhibitory concentration for cellular activity in jurkat assay; assay type: functional, cell-based; conditions: Homo sapiens
[5] = target: T3, Caspase-1 (Mus musculus) (UniProt P29452); assay: Binding affinity against mouse Caspase-1
T3 sequence (whole entry): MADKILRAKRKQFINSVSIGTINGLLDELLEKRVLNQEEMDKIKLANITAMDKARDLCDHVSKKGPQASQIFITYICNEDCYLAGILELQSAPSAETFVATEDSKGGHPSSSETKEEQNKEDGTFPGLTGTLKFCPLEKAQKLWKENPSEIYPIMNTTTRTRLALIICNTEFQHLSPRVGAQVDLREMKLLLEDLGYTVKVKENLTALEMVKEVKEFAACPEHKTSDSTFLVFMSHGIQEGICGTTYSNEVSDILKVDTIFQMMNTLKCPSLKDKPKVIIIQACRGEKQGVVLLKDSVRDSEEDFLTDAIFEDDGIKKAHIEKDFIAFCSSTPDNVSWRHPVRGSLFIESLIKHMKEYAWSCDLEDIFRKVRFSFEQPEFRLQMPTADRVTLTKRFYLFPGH

[6] = target: T1, Caspase-6 (Homo sapiens); assay: Reversible inhibition against Caspase-6

Sequence of Caspase-8 (Homo sapiens) (Q14790 217-374 limits assumed): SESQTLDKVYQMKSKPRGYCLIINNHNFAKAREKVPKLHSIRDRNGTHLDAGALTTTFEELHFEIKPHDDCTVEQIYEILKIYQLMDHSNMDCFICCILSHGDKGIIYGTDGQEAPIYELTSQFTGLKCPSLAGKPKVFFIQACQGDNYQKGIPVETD
Sequence of Caspase-8 (Homo sapiens) (Q14790 385-479 limits assumed): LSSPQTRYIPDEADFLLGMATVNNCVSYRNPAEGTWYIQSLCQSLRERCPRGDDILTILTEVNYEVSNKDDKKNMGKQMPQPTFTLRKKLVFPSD

SMILES	k3/ki [1]	k3/ki [2]	k3/ki [3]	IC50 [4]	k3/ki [5]	k3/ki [6]
CC(C)[C@H](NC(=O)COc1cccc2ccccc12)C(=O)N[C@@H](CC(=O)O)C(=O)COc1ccncn1	0 1/m/s	0 1/m/s	0 1/m/s	> 200 µM	0 1/m/s	–
CC(C)[C@H](NC(=O)COc1cccc2ccccc12)C(=O)N[C@@H](CC(=O)O)C(=O)COn1nnc2ccccc2c1=O	18200 1/m/s	44000 1/m/s	169000 1/m/s	137 µM	45400 1/m/s	–
CC(C)[C@H](NC(=O)COc1cccc2ccccc12)C(=O)N[C@@H](CC(=O)O)C(=O)CSc1nc2ccccc2[nH]1	10 1/m/s	25 1/m/s	1770 1/m/s	> 200 µM	168 1/m/s	–
COC(=O)c1cc(OCC(=O)[C@H](CC(=O)O)NC(=O)[C@@H](NC(=O)COc2cccc3ccccc23)C(C)C)no1	6340 1/m/s	5800 1/m/s	144000 1/m/s	71 µM	42500 1/m/s	–
CC(C)c1cc(OCC(=O)[C@H](CC(=O)O)NC(=O)[C@@H](NC(=O)COc2cccc3ccccc23)C(C)C)no1	279 1/m/s	220 1/m/s	21800 1/m/s	> 200 µM	3670 1/m/s	–
CCOC(=O)c1c(C)noc1OCC(=O)[C@H](CC(=O)O)NC(=O)[C@@H](NC(=O)COc1cccc2ccccc12)C(C)C	1140 1/m/s	–	5670 1/m/s	> 200 µM	1440 1/m/s	0 1/m/s
